In patent US20100179324A1, “ANTI-TUMOR AGENT COMPRISING SULPHOSTIN OR SULPHOSTIN-RELATED COMPOUND AS THE ACTIVE INGREDIENT” (Microbial Chemistry Research Foundation, priority 2007, published 2010):

Legend:
[1] = system: Colon26 colorectal cancer cells; test: Anti-tumor effect on Colon26 (Experimental Example 1), transplanted mice; format: in vivo; settings: for suppression rate: tumor weight Day 28 vs control group
Procedure: (§1) Also, in the Examples, the “suppression rate” was calculated using the following formula.
(§2) Suppression rate (%)=(1−tumor weight in the administration group/tumor weight in the control group)×100
(§3) Six-week-old BALB/cAnNCrj female mice were used for this test. The following six groups were provided: Group 1 in which physiological saline (solvent) was administered; Group 2 in which sulphostin was administered at a dose of 200 mg/kg; Group 3 in which sulphostin was administered at a dose of 50 mg/kg; Group 4 in which PT-100 was administered at a dose of 200 mg/kg; Group 5 in which PT-100 was administered at a dose of 50 mg/kg; and Group 6 in which Furtulon was administered at a dose of 30 mg/kg. The number of animals was set to eight in Group 1 (control group) and to six in each of Groups 2 to 6 (drug administration groups).
(§4) On Day 0, 2×10^5 Colon26 colorectal cancer cells were transplanted into the groin of the mice. Each of sulphostin and PT-100 was intraperitoneally administered to the mice at the above dose once in a day on Days 1 to 6, 8 to 13, 15 to 20 and 22 to 27. Furtulon was orally administered following a similar administration schedule. In use, sulphostin and PT-100 were each diluted with physiological saline to have an intended concentration; and Furtulon was suspended in 0.5% sodium carboxymethyl cellulose and then diluted with physiological saline to have an intended concentration. On Day 28, the tumor was taken out from each mouse and weighed, to thereby determine the effect of each drug. In addition, the presence or absence of side effects of each drug was confirmed by monitoring a change in body weight of the mouse in the course of the treatment and observing the degree of hair loss in the mouse after administration.

[2] = system: Colon26 colorectal cancer cells; test: Anti-tumor effect on advanced Colon26 (Experimental Example 2), drug from Day 10; format: in vivo, mouse
Procedure: as §1, §2
as §3, with “of 50” for “of 200”, “of 3.1” for “of 50”, “to seven” for “to eight”, “to five” for “to six”
as §4, with “mice. Administration of each drug was initiated from Day 10 when the transplanted cancer cells were thought to grow.” for “mice.”, “Days 10” for “Days 1”, “to 18 and 20” for “to 6, 8”, “to 25.” for “to 13, 15 to 20 and 22 to 27.”, “mouse” for “mouse in the course of the treatment”, “mouse in the course of the treatment.” for “mouse after administration.”

B16-BL6 melanoma cells = test: Anti-tumor effect on B16-BL6 (Experimental Example 3), transplanted mice; format: in vivo, mouse; settings: tumor weight Day 21 vs control group
Procedure: as §1, §2
Five-week-old C57BL/6NCrj female mice were used for this test. The following three groups were provided: Group 1 in which physiological saline (solvent) was administered; Group 2 in which sulphostin was administered at a dose of 200 mg/kg; and Group 3 in which sulphostin was administered at a dose of 50 mg/kg. The number of animals was set to seven in Group 1 (control group) and to five in each of Groups 2 and 3 (drug administration groups).
On Day 0, 2×10^5 B16-BL6 melanoma cells were transplanted into the groin of the mice. Twenty four hours after transplantation, sulphostin was intraperitoneally administered to the mice at the above respective doses once in a day on Days 1 to 5, 7 to 12, and 14 to 19. In use, sulphostin was diluted with physiological saline to have an intended concentration. On Day 21, the tumor was taken out from each mouse and weighed, to thereby determine the effect of sulphostin.

[3] = Toxicity test on mouse (Experimental Example 4); format: in vivo; settings: i.p. twice a day for 10 days; for Heart weight (Avg.) / Left kidney weight (Avg.) / Liver weight (Avg.) / Lung weight (Avg.) / Right kidney weight (Avg.) / Spleen weight (Avg.) / Thymus weight (Avg.): dissected Day 19; for change in body weight: normal mice
Procedure: Four-week-old female ICR mice (Crj: CD-1) were used for this test. The following six groups were provided: Group 1 in which physiological saline (solvent) was administered; Group 2 in which sulphostin was administered at a dose of 50 mg/kg; Group 3 in which sulphostin was administered at a dose of 25 mg/kg; Group 4 in which PT-100 was administered at a dose of 50 mg/kg; Group 5 in which PT-100 was administered at a dose of 25 mg/kg; Group 6 in which PT-100 was administered at a dose of 12.5 mg/kg; and Group 7 in which PT-100 was administered at a dose of 6.3 mg/kg. Note that each of the above doses is a dose for each administration. The number of animals was set to three in each of the groups. Each drug was intraperitoneally administered to each mouse twice in a day for 10 consecutive days, and the mouse was weighed at an appropriate time and monitored over time. On Day 19 after initiation of administration, each mouse was dissected under anesthesia and examined for remarks.

EL-4 mouse thymoma cells = test: Test on cell toxicity, MTT method, EL-4; format: cell-based; settings: 48 h, EL4 thymoma, two days incubation
Procedure: (§5) The inhibitory effect of sulphostin on the proliferation of tumor cells in vitro was investigated. The culture liquid used was a 10% FCS-containing RPMI1640 medium, and incubation was performed at 37° C. in 5% CO2-air. EL-4 mouse thymoma cells, Colon-26 mouse colon cancer cells and B16-BL6 mouse melanoma cells were incubated at 1×10^4 cells/well for two days, and then the number of cells was measured by the MTT method. Specifically, MTT (0.4% and 10 μL) was added to each cell culture, followed by incubating for four hours. Further, 20% sodium dodecyl sulphate (SDS) was added thereto in an amount of 100 μL, and each plate was measured for absorbance at 570 nm and 690 nm using a microplate reader. Sulphostin was added to the wells simultaneously with the initiation of the tumor cell incubation.

[4] = system: Colon-26 mouse colon cancer cells; test: Test on cell toxicity, MTT method, Colon-26; format: cell-based; settings: Colon 26, 48 h, Colon26 colon cancer, two days incubation
Procedure: as §5

[5] = system: B16-BL6 mouse melanoma cells; test: Test on cell toxicity, MTT method, B16-BL6; format: cell-based; settings: 48 h, two days incubation
Procedure: as §5

[6] = 50 mg/kg intraperitoneal once a day from Day 1
[7] = 50 mg/kg intraperitoneal, six mice per group
[8] = 200 mg/kg intraperitoneal once a day from Day 1
[9] = 200 mg/kg intraperitoneal, six mice per group
[10] = 3.1 mg/kg intraperitoneal from Day 10, tumor weight Day 28 vs control group
[11] = 50 mg/kg intraperitoneal from Day 10, tumor weight Day 28 vs control group

SMILES: CC(C)[C@H](N)C(=O)N1CCC[C@H]1B(O)O [PT-100]
- hair loss by continuous administration ([1]; 50 mg/kg intraperitoneal): extremely observed throughout the body
- suppression rate [1, 6]: 66.7%
- tumor regression [1, 7]: the tumor was not regressed
- hair loss by continuous administration ([1]; 200 mg/kg intraperitoneal): extremely observed throughout the body
- loss of body weight by continuous administration ([1]; 200 mg/kg intraperitoneal): considerably observed
- suppression rate [1, 8]: 62.3%
- tumor regression [1, 9]: the tumor was not regressed
- suppression rate on tumor weight [2, 10]: 51.5%
- suppression rate on tumor weight [2, 11]: 70.8%

SMILES: C[C@H]1O[C@@H](n2cc(F)c(=O)[nH]c2=O)[C@H](O)[C@@H]1O [Furtulon, Doxifluridine]
- tumor regression ([1]; 30 mg/kg oral): the tumor was not regressed
- suppression rate ([1]; 30 mg/kg oral once a day from Day 1): 56.9%
- suppression rate ([2]; 30 mg/kg oral from Day 10, tumor weight Day 28 vs control group): 47.0%

SMILES: N[C@H]1CCCN([P@@](N)(=O)NS(=O)(=O)O)C1=O [Sulphostin, 3(S)-amino-1-((R)-amino(sulfoamino)phosphinyl)-2-piperidone]
- hair loss by continuous administration ([1]; 50 mg/kg intraperitoneal): hardly observed
- loss of body weight by continuous administration ([1]; 50 mg/kg intraperitoneal): not observed
- suppression rate [1, 6]: 87.8%
- tumor regression [1, 7]: two out of six mice
- hair loss by continuous administration ([1]; 200 mg/kg intraperitoneal): hardly observed
- loss of body weight by continuous administration ([1]; 200 mg/kg intraperitoneal): not observed
- suppression rate [1, 8]: 91.7%
- tumor regression [1, 9]: two out of six mice
- suppression rate on tumor weight [2, 10]: 66.2%
- suppression rate on tumor weight [2, 11]: 87.3%
- loss of body weight by continuous administration ([2]; intraperitoneal from Day 10, dose not specified (groups 50 and 3.1 mg/kg)): not observed
- suppression rate (B16-BL6 melanoma cells; [6]): 53.3%
- suppression rate (B16-BL6 melanoma cells; [8]): 51.7%
- abnormalities during monitoring and in remarks after dissection ([3]; 25 mg/kg per administration): nor did they show any abnormalities
- Heart weight (Avg.) ([3]; 25 mg/kg per administration): 118.3 mg
- Left kidney weight (Avg.) ([3]; 25 mg/kg per administration): 204.7 mg
- Liver weight (Avg.) ([3]; 25 mg/kg per administration): 1769.3 mg
- Lung weight (Avg.) ([3]; 25 mg/kg per administration): 182 mg
- Right kidney weight (Avg.) ([3]; 25 mg/kg per administration): 210.3 mg
- Spleen weight (Avg.) ([3]; 25 mg/kg per administration): 127.7 mg
- Thymus weight (Avg.) ([3]; 25 mg/kg per administration): 63.7 mg
- change in body weight ([3]; 25 mg/kg per administration): did not decrease in body weight
- abnormalities during monitoring and in remarks after dissection ([3]; 50 mg/kg per administration): nor did they show any abnormalities
- Heart weight (Avg.) ([3]; 50 mg/kg per administration): 120 mg
- Left kidney weight (Avg.) ([3]; 50 mg/kg per administration): 202.3 mg
- Liver weight (Avg.) ([3]; 50 mg/kg per administration): 1803.7 mg
- Lung weight (Avg.) ([3]; 50 mg/kg per administration): 165.3 mg
- Right kidney weight (Avg.) ([3]; 50 mg/kg per administration): 206.7 mg
- Spleen weight (Avg.) ([3]; 50 mg/kg per administration): 141.7 mg
- Thymus weight (Avg.) ([3]; 50 mg/kg per administration): 76 mg
- change in body weight ([3]; 50 mg/kg per administration): did not decrease in body weight
- IC50 (EL-4 mouse thymoma cells): > 100 µg/mL
- IC50 [4]: > 100 µg/mL
- IC50 [5]: > 100 µg/mL
